In patent US5191079A, “Quinolinecarboxylic acid derivatives” (priority 1990, dated 1993):
Values after ≈ are worked out from the molar mass of the structure shown. Counter-ions that a name gives are not always drawn. Like-named read-outs stand apart in the source and are kept apart here.

Assays:
Assay type in all cases: cell-based
[1] = tested on: Acinetobacter calcoaceticus Ac 54; test: MIC, Experiment 1; details: AC54, A. calcoaceticus Ac 54, Gram -, read-out: Min. inhib. concentr. (MIC)
Summary of the method: (§1)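 Stocks: 5000 μg/ml in DMSO or sterile distilled water; standard: 1000 μg/ml after water dilution. Method: Japan Society of Chemotherapy.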

[2] = tested on: Bacillus cereus IAM 1029; test: MIC, Experiment 1; details: IAM1029, B. cereus IAM 1029, Gram +, read-out: Min. inhib. concentr. (MIC)
Summary of the method: (§2)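 Compounds were dissolved in DMSO or sterile water at 5000 μg/ml, then diluted with sterile water to a 1000 μg/ml standard solution. Testing followed the Japan Society of Chemotherapy method. S. aureus and B. cereus were run on sensitivity test agar; pneumococci were run on horse-blood heart infusion agar.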

[3] = tested on: Bacillus subtilis ATCC 6633; test: MIC, Experiment 1; details: ATCC6633, B. subtilis ATCC 6633, Gram +, read-out: Min. inhib. concentr. (MIC)
Summary of the method: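 Japan Society of Chemotherapy MIC protocol. Pneumococci: BHI broth preculture, heart infusion agar plus 5% defibrinated horse blood. Staphylococcus/Bacillus: sensitivity test broth preculture, sensitivity test agar.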

[4] = tested on: Enterobacter cloacae 963; test: MIC, Experiment 1; details: E. cloacae 963, Gram -, read-out: Min. inhib. concentr. (MIC)
Summary of the method: as §1

[5] = tested on: Escherichia coli NIHJ JC-2; test: MIC, Experiment 1; details: NIHJJC2, E. coli NIHJ JC-2, Gram -, read-out: Min. inhib. concentr. (MIC)
Summary of the method: as §1

[6] = tested on: Klebsiella pneumoniae PCI-602; test: MIC, Experiment 1; details: PCI602, K. pneumoniae PCI-602, Gram -, read-out: Min. inhib. concentr. (MIC)
Summary of the method: as §1

[7] = tested on: Micrococcus luteus ATCC 9341; test: MIC, Experiment 1; details: ATCC9341, M. luteus ATCC 9341, Gram +, read-out: Min. inhib. concentr. (MIC)
Summary of the method: as §1

[8] = tested on: Proteus mirabilis IFO 3849; test: MIC, Experiment 1; details: IFO3849, P. mirabilis IFO 3849, Gram -, read-out: Min. inhib. concentr. (MIC)
Summary of the method: as §1

[9] = tested on: Pseudomonas aeruginosa NCTC 10490; test: MIC, Experiment 1; details: NCTC10490, P. aeruginosa NCTC 10490, Gram -, read-out: Min. inhib. concentr. (MIC)
Summary of the method: as §1

[10] = tested on: Staphylococcus aureus ATCC 9144; test: MIC, Experiment 1; details: ATCC9144, S. aureus ATCC 9144, Gram +, read-out: Min. inhib. concentr. (MIC)
Summary of the method: as §2

[11] = tested on: Staphylococcus aureus Cowan I (IID 975); test: MIC, Experiment 1; details: IID975, S. aureus Cowan I (IID 975), Gram +, read-out: Min. inhib. concentr. (MIC)
Summary of the method: as §2

[12] = tested on: Staphylococcus aureus FDA 209P JC-1; test: MIC, Experiment 1; details: FDA209P, S. aureus FDA 209P JC-1, Gram +, read-out: Min. inhib. concentr. (MIC)
Summary of the method: as §2

[13] = tested on: Staphylococcus aureus FDA 243; test: MIC, Experiment 1; details: FDA243, S. aureus FDA 243, Gram +, read-out: Min. inhib. concentr. (MIC)
Summary of the method: as §2

[14] = tested on: Staphylococcus aureus IID 803; test: MIC, Experiment 1; details: IID803, S. aureus IID 803, Gram +, read-out: Min. inhib. concentr. (MIC)
Summary of the method: as §2

[15] = tested on: Staphylococcus aureus MS-353; test: MIC, Experiment 1; details: MS353, S. aureus MS-353, Gram +, read-out: Min. inhib. concentr. (MIC)
Summary of the method: as §2

[16] = tested on: Staphylococcus aureus Terajima (IID 670); test: MIC, Experiment 1; details: IID670, S. aureus Terajima (IID 670), Gram +, read-out: Min. inhib. concentr. (MIC)
Summary of the method: as §2

[17] = tested on: Streptococcus pneumoniae IID 552; test: MIC, Experiment 1; details: IID552, S. pneumoniae IID 552, Gram +, agar with 5% defibrinated horse blood, read-out: Min. inhib. concentr. (MIC)
Summary of the method: as §2

[18] = tested on: Streptococcus pneumoniae IID 554; test: MIC, Experiment 1; details: IID554, S. pneumoniae IID 554, Gram +, agar with 5% defibrinated horse blood, read-out: Min. inhib. concentr. (MIC)
Summary of the method: as §2

[19] = tested on: Streptococcus pyogenes Cook; test: MIC, Experiment 1; details: S. pyogenes Cook, Gram +, agar with 5% defibrinated horse blood, read-out: Min. inhib. concentr. (MIC)
Summary of the method: as §1

[20] = tested on: Streptococcus pyogenes Su; test: MIC, Experiment 1; details: S. pyogenes Su, Gram +, agar with 5% defibrinated horse blood, read-out: Min. inhib. concentr. (MIC)
Summary of the method: as §1

[21] = tested on: Streptococcus pyogenes Sv; test: MIC, Experiment 1; details: S. pyogenes Sv, Gram +, agar with 5% defibrinated horse blood, read-out: Min. inhib. concentr. (MIC)
Summary of the method: as §1

[22] = tested on: clinically isolated Staphylococcus epidermidis; test: In vitro antibacterial activity against clinical isolates, Experiment 2; details: Staphylococcus epidermidis
Summary of the method: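 Read-out is MIC on sensitivity test agar. Organisms are grown beforehand in sensitivity test broth, and each compound is supplied from a 1000 μg/ml standard solution diluted in sterilized distilled water.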

[23] = 25 clinical strains S. epidermidis
[24] = 25 clinical strains S. epidermidis, 50% of strains, read-out: MIC50
[25] = 25 clinical strains S. epidermidis, 90% of strains, read-out: MIC90

Row | SMILES | MIC [1] [µg/mL] | MIC [2] [µg/mL] | MIC [3] [µg/mL] | MIC [4] [µg/mL] | MIC [5] [µg/mL] | MIC [6] [µg/mL] | MIC [7] [µg/mL] | MIC [8] [µg/mL] | MIC [9] [µg/mL] | MIC [10] [µg/mL] | MIC [11] [µg/mL] | MIC [12] [µg/mL] | MIC [13] [µg/mL] | MIC [14] [µg/mL] | MIC [15] [µg/mL] | MIC [16] [µg/mL] | MIC [17] [µg/mL] | MIC [18] [µg/mL] | MIC [19] [µg/mL] | MIC [20] [µg/mL] | also measured
1 | COCC1CN(c2c(F)cc3c(=O)c(C(=O)O)c4scc5n4c3c2N(C)C5)CCN1C (stereo not drawn) [Compound (J), 9,1-(Methylimino)methano-7-fluoro-8-(3-methoxymethyl-4-methyl-1-piperazinyl)-5-oxo-5H-thiazolo[3,2-a]quinoline-4-carboxylic acid hydrochloride] | 0.1 | 0.1 | 0.05 | 0.39 | 0.39 | 0.05 | 0.39 | 1.56 | 1.56 | 0.1 | 0.05 | 0.05 | 0.05 | 0.1 | 0.1 | 0.1 | 0.05 | 0.1 | 0.1 | 0.1 | MIC [21]: 0.1 µg/mL; MIC [22, 23]: 0.05 to 6.25 µg/mL; MIC50 [22, 24]: 0.1 µg/mL; MIC90 [22, 25]: 3.13 µg/mL
2 | CN1Cc2csc3c(C(=O)O)c(=O)c4cc(F)c(N5CCN(C)C(CF)C5)c1c4n23 (stereo not drawn) [Compound (K), 9,1-(methylimino)methano-7-fluoro-8-(3-fluoromethyl-4-methyl-1-piperazinyl)-5-oxo-5H-thiazolo[3,2-a]quinoline-4-carboxylic acid hydrochloride] | 0.025 | 0.05 | 0.013 | 0.2 | 0.2 | 0.013 | 0.39 | 0.39 | 0.78 | 0.05 | 0.05 | 0.05 | 0.05 | 0.05 | 0.05 | 0.05 | 0.05 | 0.1 | 0.1 | 0.05 | MIC [21]: 0.1 µg/mL; MIC90 [22]: 0.78 µg/mL; MIC [22, 23]: 0.05 to 1.56 µg/mL; MIC50 [22, 24]: 0.05 µg/mL
3 | CN1Cc2csc3c(C(=O)O)c(=O)c4cc(F)c(N5CCC(O)CC5)c1c4n23 [Compound (L), 9,1-(Methylimino)methano-7-fluoro-8-(4-hydroxypiperidino)-5-oxo-5H-thiazolo[3,2-a]quinoline-4-carboxylic acid] | ≤ 0.006 | 0.013 (≈ 0.0322 µM) | ≤ 0.006 | 0.2 (≈ 0.496 µM) | 0.1 (≈ 0.248 µM) | ≤ 0.006 | 0.1 (≈ 0.248 µM) | 0.2 (≈ 0.496 µM) | 0.39 (≈ 0.967 µM) | ≤ 0.006 | ≤ 0.006 | 0.013 (≈ 0.0322 µM) | ≤ 0.006 | ≤ 0.006 | 0.013 (≈ 0.0322 µM) | 0.013 (≈ 0.0322 µM) | 0.013 (≈ 0.0322 µM) | 0.05 (≈ 0.124 µM) | 0.025 (≈ 0.062 µM) | 0.025 (≈ 0.062 µM) | MIC [21]: 0.025 µg/mL (≈ 0.062 µM); MIC [22, 23]: 0.006 to 0.39 µg/mL (≈ 0.0149 to 0.967 µM); MIC50 [22, 24]: 0.013 µg/mL (≈ 0.0322 µM); MIC90 [22, 25]: 0.39 µg/mL (≈ 0.967 µM)
4 | CN1Cc2csc3c(C(=O)O)c(=O)c4cc(F)c(N5CCO[C@H](CO)C5)c1c4n23 [Compound (M), 9,1-(Methylimino)methano-7-fluoro-8-[ (2S)-2-hydroxymethylmorpholino]-5-oxo-5H-thiazolo[3,2-a]quinoline-4-carboxylic acid] | ≤ 0.006 | 0.025 (≈ 0.0596 µM) | ≤ 0.006 | 0.2 (≈ 0.477 µM) | 0.1 (≈ 0.238 µM) | ≤ 0.006 | 0.2 (≈ 0.477 µM) | 0.39 (≈ 0.93 µM) | 0.39 (≈ 0.93 µM) | ≤ 0.006 | 0.013 (≈ 0.031 µM) | 0.013 (≈ 0.031 µM) | ≤ 0.006 | 0.013 (≈ 0.031 µM) | 0.025 (≈ 0.0596 µM) | 0.025 (≈ 0.0596 µM) | 0.05 (≈ 0.119 µM) | 0.05 (≈ 0.119 µM) | 0.05 (≈ 0.119 µM) | 0.025 (≈ 0.0596 µM) | MIC [21]: 0.05 µg/mL (≈ 0.119 µM); MIC50 [22]: 0.025 µg/mL (≈ 0.0596 µM); MIC [22, 23]: 0.006 to 0.78 µg/mL (≈ 0.0143 to 1.86 µM); MIC90 [22, 25]: 0.39 µg/mL (≈ 0.93 µM)
5 | CN1Cc2csc3c(C(=O)O)c(=O)c4cc(F)c(N5CCO[C@@H](CO)C5)c1c4n23 [Compound (N), 9,1-(Methylimino)methano-7-fluoro-8-[(2R)-2-hydroxymethylmorpholino]-5-oxo-5H-thiazolo[3,2-a]quinoline-4-caboxylic acid] | ≤ 0.006 | 0.025 (≈ 0.0596 µM) | ≤ 0.006 | 0.39 (≈ 0.93 µM) | 0.2 (≈ 0.477 µM) | ≤ 0.006 | 0.1 (≈ 0.238 µM) | 0.39 (≈ 0.93 µM) | 0.39 (≈ 0.93 µM) | ≤ 0.006 | 0.013 (≈ 0.031 µM) | 0.013 (≈ 0.031 µM) | ≤ 0.006 | 0.013 (≈ 0.031 µM) | 0.025 (≈ 0.0596 µM) | 0.025 (≈ 0.0596 µM) | 0.025 (≈ 0.0596 µM) | 0.05 (≈ 0.119 µM) | 0.025 (≈ 0.0596 µM) | 0.025 (≈ 0.0596 µM) | MIC [21]: 0.05 µg/mL (≈ 0.119 µM); MIC50 [22]: 0.025 µg/mL (≈ 0.0596 µM); MIC [22, 23]: 0.006 to 0.78 µg/mL (≈ 0.0143 to 1.86 µM); MIC90 [22, 25]: 0.39 µg/mL (≈ 0.93 µM)
